The source made the active and inactive calls. No cut-off for these calls is given here.
Assays:
MDA-MB-231 [1] = assay: Cytotoxicity against wild type human MDA-MB-231 cells assessed as reduction in cell viability incubated for 72 hrs by MTT assay; type: functional; details: read-out: LC50 (the source's name)
[2] = Drug uptake in rat H9c2 cells assessed as doxorubicin fluorescence measured at 24 to 72 hrs by fluorescence microscopy analysis; type: ADME, cell-based; details: time 24-72 hrs
[3] = Drug uptake in human SK-OV-3 cells assessed as doxorubicin fluorescence incubated for 3 hrs by fluorescence microscopy; type: ADME, cell-based; details: sk-ov-3, 3 h
CCRF-CEM [4] = assay: Cytotoxicity against human CCRF-CEM cells assessed as reduction in cell viability at 5 to 25 uM after 72 hrs incubation by MTT assay; type: functional; details: dose 5-25 µM
SK-OV-3 [5] = assay: Cytotoxicity against human SK-OV-3 cells assessed as reduction in cell viability at 25 uM incubated for 72 hrs by MTT assay; type: functional
CCRF-CEM [6] = assay: Cytotoxicity against human CCRF-CEM cells assessed as reduction in cell viability at 5 to 10 uM incubated for 24 hrs by MTT assay; type: functional, cell-based; details: dose 5-10 µM
[7] = Drug uptake in human SK-OV-3 cells at 5 uM incubated for 24 hrs by fluorescence microscopy; type: ADME, cell-based; details: sk-ov-3, 24 h
[8] = Drug uptake in nucleus of human MDA-MB-231 cells by confocal microscopy in the presence of 6 ug/mL chloroquine; type: ADME, subcellular
[9] = Drug uptake in human MDA-MB-231 cells by flow cytometry in the presence of 2.5 mM methyl-beta-cyclodextrin; type: ADME, cell-based
SK-OV-3 [10] = assay: Cytotoxicity against human SK-OV-3 cells assessed as reduction in cell viability at 10 uM incubated for 72 hrs by MTT assay; type: functional
SK-OV-3 [11] = assay: Cytotoxicity against human SK-OV-3 cells assessed as reduction in cell viability at 5 uM incubated for 72 hrs by MTT assay; type: functional
AGS [12] = assay: Cytotoxicity against human AGS cells assessed as reduction in cell viability at 5 to 10 uM incubated for 24 hrs by MTT assay; type: functional, cell-based; details: dose 5-10 µM
H9c2 [13] = assay: Cytotoxicity against rat H9c2 cells assessed as reduction in cell viability at 5 to 10 uM incubated upto 96 hrs by MTT assay; type: cell-based; details: h9c2, 96 h, dose 5-10 µM
[14] = Protein binding in 20% FBS by HPLC analysis; type: ADME, cell-free, Bos taurus; details: cattle, serum
[15] = Stability of compound in 10% FBS assessed as parent compound remaining after 24 hrs by HPLC analysis; type: ADME; details: cattle, 10% FBS (fetal bovine serum), read-out: Stability
[16] = Drug uptake in human MDA-MB-231 cells by flow cytometry in the presence of 30 uM chlorpromazine; type: ADME, cell-based
MDA-MB-231 [17] = assay: Cytotoxicity against doxorubicin resistant human MDA-MB-231 cells assessed as reduction in cell viability incubated for 72 hrs by MTT assay; type: functional; details: read-out: LC50 (the source's name)
H9c2 [18] = assay: Cytotoxicity against rat H9c2 cells assessed as reduction in cell viability at 25 uM incubated for 72 hrs by MTT assay; type: cell-based; details: h9c2, 72 h
LLC-PK1 [19] = assay: Cytotoxicity against pig LLC-PK1 cells assessed as reduction in cell viability at 10 uM incubated for 24 to 72 hrs by MTT assay; type: cell-based, Sus scrofa; details: llc-pk1, 10 µM, time 24-72 hrs
MES-SA = assay: Cytotoxicity against human MES-SA cells assessed as reduction in cell viability incubated for 72 hrs by MTT assay; type: functional; details: read-out: LC50 (the source's name)
[20] = Drug uptake in nucleus of human MDA-MB-231 cells by confocal microscopy in the presence of 50 ug/mL genistein; type: ADME, subcellular
LLC-PK1 [21] = assay: Cytotoxicity against pig LLC-PK1 cells assessed as reduction in cell viability at 50 uM by MTT assay; type: cell-based, Sus scrofa; details: llc-pk1, 50 µM
[22] = Drug uptake in human MDA-MB-231cells by flow cytometry in the presence of 50 ug/mL nystatin; type: ADME
H9c2 [23] = assay: Cytotoxicity against rat H9c2 cells assessed as reduction in cell viability at 25 uM incubated for 24 hrs by MTT assay; type: cell-based; details: h9c2, 24 h
CCRF-CEM [24] = assay: Cytotoxicity against human CCRF-CEM cells assessed as reduction in cell viability at 25 uM incubated for 24 hrs by MTT assay; type: functional
[25] = Drug uptake in human MDA-MB-231 cells by flow cytometry in the presence of 100 uM chloroquine; type: ADME, cell-based
[26] = Drug uptake in nucleus of human MDA-MB-231 cells by confocal microscopy in the presence of 20 ug/mL chlorpromazine; type: ADME, subcellular
[27] = Drug uptake in nucleus of human MDA-MB-231 cells by confocal microscopy in the presence of 50 ug/mL nystatin; type: ADME, subcellular
AGS [28] = assay: Cytotoxicity against human AGS cells assessed as reduction in cell viability incubated for 72 hrs by MTT assay; type: functional
H9c2 [29] = assay: Cytotoxicity against rat H9c2 cells assessed as reduction in cell viability at 25 uM incubated for 96 hrs by MTT assay; type: cell-based; details: h9c2, 96 h
CCRF-CEM [30] = assay: Cytotoxicity against human CCRF-CEM cells assessed as reduction in cell viability at 25 uM incubated for 72 hrs by MTT assay; type: functional
H9c2 [31] = assay: Cytotoxicity against rat H9c2 cells assessed as reduction in cell viability at 5 to 25 uM incubated upto 96 hrs by MTT assay; type: cell-based; details: h9c2, 96 h, dose 5-25 µM
CCRF-CEM [32] = assay: Cytotoxicity against human CCRF-CEM cells assessed as reduction in cell viability at 5 uM incubated for 72 hrs by MTT assay; type: functional
LLC-PK1 [33] = assay: Cytotoxicity against pig LLC-PK1 cells assessed as reduction in cell viability at 5 uM incubated for 72 hrs by MTT assay; type: cell-based, Sus scrofa; details: llc-pk1, 72 h
CCRF-CEM [34] = assay: Cytotoxicity against human CCRF-CEM cells assessed as reduction in cell viability at 5 uM incubated for 24 hrs by MTT assay; type: functional
AGS [35] = assay: Cytotoxicity against human AGS cells assessed as reduction in cell viability at 5 uM incubated for 72 hrs by MTT assay; type: functional
H9c2 [36] = assay: Cytotoxicity against rat H9c2 cells assessed as reduction in cell viability at 5 uM incubated for 24 hrs by MTT assay; type: cell-based; details: h9c2, 24 h
LLC-PK1 [37] = assay: Cytotoxicity against pig LLC-PK1 cells assessed as reduction in cell viability at 5 uM incubated for 24 hrs by MTT assay; type: cell-based, Sus scrofa; details: llc-pk1, 24 h
SK-OV-3 [38] = assay: Cytotoxicity against human SK-OV-3 cells assessed as reduction in cell viability at 5 uM incubated for 24 hrs by MTT assay; type: functional
Rattus norvegicus = species on record: Rattus norvegicus; assay: Drug uptake in nucleus of rat H9c2 cells measured after 24 hrs by DAPI staining based confocal microscopy analysis; type: ADME, cell-based; details: h9c2, 24 h
[39] = Drug uptake in nucleus of human SK-OV-3 cells incubated for 3 hrs by fluorescence microscopy; type: ADME, subcellular; details: sk-ov-3, 3 h
H9c2 [40] = assay: Cytotoxicity against rat H9c2 cells assessed as reduction in cell viability at 5 uM incubated for 72 hrs by MTT assay; type: cell-based; details: h9c2, 72 h
H9c2 [41] = assay: Cytotoxicity against rat H9c2 cells assessed as change in cell morphology at 5uM measured after 72 hours; type: cell-based; details: h9c2, 72 h
H9c2 [42] = assay: Cytotoxicity against rat H9c2 cells assessed as reduction in cell viability at 5 uM incubated for 96 hrs by MTT assay; type: cell-based; details: h9c2, 96 h
AGS [43] = assay: Cytotoxicity against human AGS cells assessed as reduction in cell viability at 5 uM incubated for 24 hrs by MTT assay; type: functional
AGS [44] = assay: Cytotoxicity against human AGS cells assessed as reduction in cell viability at 5 to 10 uM incubated for 24 to 72 hrs by MTT assay; type: functional, cell-based; details: dose 5-10 µM, time 24-72 hrs
SK-OV-3 [45] = assay: Cytotoxicity against human SK-OV-3 cells assessed as reduction in cell viability at 5 to 25 uM incubated for 24 hrs by MTT assay; type: functional; details: dose 5-25 µM
AGS [46] = assay: Cytotoxicity against human AGS cells assessed as reduction in cell viability at 50 uM incubated for 72 hrs by MTT assay; type: functional
LLC-PK1 [47] = assay: Cytotoxicity against pig LLC-PK1 cells assessed as reduction in cell viability at 5 to 50 uM incubated for 72 hrs by MTT assay; type: cell-based, Sus scrofa; details: llc-pk1, 72 h, dose 5-50 µM
LLC-PK1 [48] = assay: Cytotoxicity against pig LLC-PK1 cells assessed as reduction in cell viability at 50 uM after 24 hrs of incubation by MTT assay; type: cell-based, Sus scrofa; details: llc-pk1, 24 h
AGS [49] = assay: Cytotoxicity against human AGS cells assessed as reduction in cell viability at 25 uM incubated for 72 hrs by MTT assay; type: functional
CCRF-CEM [50] = assay: Cytotoxicity against human CCRF-CEM cells assessed as reduction in cell viability at 5 to 10 uM after 72 hrs incubation by MTT assay; type: functional; details: dose 5-10 µM

COc1cccc2c1C(=O)c1c(O)c3c(c(O)c1C2=O)C[C@@](O)(C(=O)COC(=O)CCCC(=O)NCCC(=O)N[C@@H](Cc1c[nH]c2ccccc12)C(=O)N[C@@H](Cc1c[nH]c2ccccc12)C(=O)N[C@@H](Cc1c[nH]c2ccccc12)C(=O)N[C@@H](Cc1c[nH]c2ccccc12)C(=O)N[C@@H](Cc1c[nH]c2ccccc12)C(=O)N[C@@H](Cc1c[nH]c2ccccc12)C(=O)N[C@@H](Cc1c[nH]c2ccccc12)C(=O)NCCCC[C@@H]1NC(=O)[C@H](CCCNC(=N)N)NC(=O)[C@H](CCCNC(=N)N)NC(=O)[C@H](CCCNC(=N)N)NC(=O)[C@H](CCCNC(=N)N)NC(=O)[C@H](CCCNC(=N)N)NC1=O)C[C@@H]3O[C@H]1C[C@H](N)[C@H](O)[C@H](C)O1
CC50 (MDA-MB-231 [1]): 0.56 µM | Drug uptake [2]: Not Active | Drug uptake [3]: Not Active | Activity (CCRF-CEM [4]): 84% | Activity (SK-OV-3 [5]): 48% | Activity (CCRF-CEM [6]): Active | Drug uptake [7]: Active | Drug uptake [8]: Active | Drug uptake [9]: 72% | Activity (SK-OV-3 [10]): 39% | Activity (SK-OV-3 [11]): 29% | Activity (AGS [12]): inactive | Activity (H9c2 [13]): Non-Toxic | Activity [14]: Active | remaining at 24 h [15]: 25% | Drug uptake [16]: 78% | CC50 (MDA-MB-231 [17]): 36 µM | Activity (H9c2 [18]): 37% | Activity (LLC-PK1 [19]): Non-Toxic | CC50 (MES-SA): 41 µM | Drug uptake [20]: Active | Activity (LLC-PK1 [21]): 33% | Drug uptake [22]: Active | Activity (H9c2 [23]): 68% | Activity (CCRF-CEM [24]): 64% | Drug uptake [25]: Active | Drug uptake [26]: Active | Drug uptake [27]: Active | Activity (AGS [28]): 73% | Activity (H9c2 [29]): 39%

COc1cccc2c1C(=O)c1c(O)c3c(c(O)c1C2=O)C[C@@](O)(C(=O)CO)C[C@@H]3O[C@H]1C[C@H](NC(=N)CCCSSC[C@H](NC(C)=O)C(=O)N[C@@H](Cc2c[nH]c3ccccc23)C(=O)N[C@@H](Cc2c[nH]c3ccccc23)C(=O)N[C@@H](Cc2c[nH]c3ccccc23)C(=O)N[C@@H](Cc2c[nH]c3ccccc23)C(=O)N[C@@H](Cc2c[nH]c3ccccc23)C(=O)N[C@@H](Cc2c[nH]c3ccccc23)C(=O)N[C@@H](Cc2c[nH]c3ccccc23)C(=O)NCCCC[C@@H]2NC(=O)[C@H](CCCNC(=N)N)NC(=O)[C@H](CCCNC(=N)N)NC(=O)[C@H](CCCNC(=N)N)NC(=O)[C@H](CCCNC(=N)N)NC(=O)[C@H](CCCNC(=N)N)NC2=O)[C@H](O)[C@H](C)O1
Activity (CCRF-CEM [30]): 79% | Activity (H9c2 [31]): Non-Toxic

COc1cccc2c1C(=O)c1c(O)c3c(c(O)c1C2=O)C[C@@](O)(C(=O)CO)C[C@@H]3O[C@H]1C[C@H](N)[C@H](O)[C@H](C)O1 [DOXORUBICIN]
CC50 (MDA-MB-231 [1]): 0.45 µM | Activity (CCRF-CEM [32]): 85% | Activity (LLC-PK1 [33]): 77% | Activity (CCRF-CEM [34]): 52% | Activity (AGS [35]): 87% | Activity (H9c2 [36]): 20% | Activity (LLC-PK1 [37]): 64% | Activity (SK-OV-3 [11]): 33% | Activity (SK-OV-3 [38]): 27% | Drug uptake (Rattus norvegicus): Active | Drug uptake [39]: Active | CC50 (MDA-MB-231 [17]): 2.3 µM | CC50 (MES-SA): 4.3 µM | Activity (H9c2 [40]): 44% | Activity (H9c2 [41]): Toxic | Activity (H9c2 [42]): 44% | Activity (AGS [43]): 46%

N=C(N)NCCC[C@@H]1NC(=O)[C@H](CCCCNC(=O)[C@H](Cc2c[nH]c3ccccc23)NC(=O)[C@H](Cc2c[nH]c3ccccc23)NC(=O)[C@H](Cc2c[nH]c3ccccc23)NC(=O)[C@H](Cc2c[nH]c3ccccc23)NC(=O)[C@H](Cc2c[nH]c3ccccc23)NC(=O)[C@H](Cc2c[nH]c3ccccc23)NC(=O)[C@H](Cc2c[nH]c3ccccc23)NC(=O)CCN)NC(=O)[C@H](CCCNC(=N)N)NC(=O)[C@H](CCCNC(=N)N)NC(=O)[C@H](CCCNC(=N)N)NC(=O)[C@H](CCCNC(=N)N)NC1=O
Activity (AGS [44]): inactive | Activity (SK-OV-3 [5]): 19% | Activity (SK-OV-3 [45]): 21% | Activity (AGS [46]): 87% | Activity (LLC-PK1 [47]): Non-Toxic | Activity (LLC-PK1 [48]): 71% | Activity (CCRF-CEM [24]): 68% | Activity (AGS [49]): 24% | Activity (CCRF-CEM [50]): 10%

Reference: ChEMBL document CHEMBL5036344, “Design and application of hybrid cyclic-linear peptide-doxorubicin conjugates as a strategy to overcome doxorubicin resistance and toxicity” (Eur J Med Chem, 2021)
